Patent publication US12331136B2, “Anti-aging sturgeon roe tetrapeptide and preparation method and application thereof” (Shenzhen Porshealth Bioengineering Co., Ltd., priority 2023, dated 2025)
Residues, ends and D or L forms follow the SMILES beside them.

Assay: Absorption experiment of NLPL in rats (blood LC-MS/MS)
Format: in vivo
Conditions: SD rats, intragastric 50 mg/kg bw
Procedure: In this research, SD rats are used and divided into three groups: a normal group and sturgeon NLPL (SEQ ID NO: 9) groups (50 mg/kg bw of daily dosage). At 12 h before the experiment, the rats are fasted but allowed to drink water. At 15 min, 45 min, 90 min, 180 min and 360 min after intragastric administration, all rats are anesthetized with 3% pentobarbital sodium, subjected to blood sampling through the abdominal aorta, and then euthanized. The polypeptide samples are prepared by solid phase synthesis and desalted.
• (1) The required samples are taken out, thawed, and mixed uniformly by vortex. • (2) 40 μL of sample is taken from the mixed sample, added with 120 μL of methanol, then shaken for 10 min, and centrifuged at low temperature for 10 min. • (3) 70 μL of supernatant is taken out from the centrifuged sample for subsequent determination. 4.2.2.2 Preparation of Standard Solution
Chromatographic separation is performed by using Waters ACQUITY UPLC I-CLASS ultra-high performance liquid chromatography equipment. Specific conditions are as follows: chromatographic column: Waters UPLC HSS T3 (1.8 μm, 2.1 mm×100 mm)—mobile phase: phase A (water, 0.1% formic acid), phase B (methanol)—flow rate: 0.3 mL/min-injection volume: 5.0 μL-column temperature: 40° C.—single sample analysis time: 8 min.
Mass spectrometric detection is performed by using Waters XEVO TQ-XS series four-pole mass spectrometer. Specific conditions are as follows: positive ion source voltage: 3.0 kV-cone well voltage: 30 V-solvent removal temperature: 500° C.—solvent removal gas flow rate: 1000 L/h-cone well gas flow rate: 150 L/h.
Data are expressed in the form of Mean±SD. Data processing and significance analysis are performed by Graphpad. P<0.05 and P<0.01 indicate significant difference and extremely significant difference in data. The target peak area in the polypeptide metabolism data is calculated by using TargetLynx software, and an allowable error of retention time is 15 s. The calculation of concentration is based on a standard curve method to obtain quantitative results.

SMILES: CC(C)C[C@H](NC(=O)[C@@H]1CCCN1C(=O)[C@H](CC(C)C)NC(=O)[C@@H](N)CC(N)=O)C(=O)O [NLPL] (H-NLPL-OH; N-terminus and C-terminus assumed)
- time at which NLPL content in the blood reaches a maximum: ≤ 45 min
- AUC (rat, blood, po, during the measurement time (to 360 min)): 7.14 ng·h/mL
- Cmax (rat, blood, po, read-out: maximum NLPL content in the blood): 1.65 ± 1.75 ng/mL
